How the values were obtained:
Type in all cases: in vivo
[1] = system: Ctenocephalides felis; experiment: whole plant or invertebrate; conditions: 50 ppm in bovine blood, oral via feeder, adults, following day, read-out: mortality rate
[2] = system: Laodelphax striatellus; experiment: whole plant or invertebrate; conditions: 192 h, rice seedlings dipped 30 seconds, 3rd-instar larvae, 8 days after inoculation, criteria of Test Example 1, read-out: insecticidal efficacy (corrected mortality rate)
[3] = system: Haemonchus contortus; experiment: Larval motility assay on Haemonchus contortus; conditions: 96 h, L1 stage larvae, 4 days, relative to DMSO only, read-out: percent motility inhibition
Method: Larval Motility Assay on Haemonchus contortus
DMSO diluted solutions of various compounds of the present invention were added at the final concentration of 50 ppm to the wells of a 96-well plate containing a predetermined conditioned medium. Twenty L1 stage larvae of H. contortus were introduced into each well of the 96-well plate. The plate was allowed to stand for 4 days, and then larval motility was examined. The percent motility inhibition in the wells of each treatment was calculated relative to the wells of treatment with DMSO only.

[4] = system: Dirofilaria immitis; experiment: Larval motility assay on Dirofilaria immitis; conditions: 72 h, L1 stage larvae, 3 days, relative to DMSO only, read-out: percent motility inhibition
Method: Larval Motility Assay on Dirofilaria immitis
Five hundred L1 stage larvae of D. immitis were diluted in a predetermined conditioned medium and introduced into each well of a 96-well plate. DMSO diluted solutions of various compounds of the present invention were added at the final concentration of 50 ppm to the wells of the 96-well plate. The plate was allowed to stand for 3 days, and then larval motility was examined. The percent motility inhibition in the wells of each treatment was calculated relative to the wells of treatment with DMSO only.

[5] = system: Plutella xylostella; experiment: whole plant or invertebrate; conditions: 144 h, Chinese cabbage seedlings with laid eggs dipped about 30 seconds, 6 days after dip treatment, criteria of Test Example 1, read-out: insecticidal efficacy (corrected mortality rate)
[6] = system: Rhipicephalus sanguineus; experiment: Assay for transdermal parasiticidal activity against nymphs of Rhipicephalus sanguineus; conditions: 100 ppm applied to inside of sample bottles, two days later
Source text: DMSO diluted solutions of various compounds of the present invention were individually diluted to the final concentration of 100 ppm with an acetone/triton mixture and applied to the inside of vented sample bottles. After overnight drying, ten nymphs of R. sanguineus were introduced into each bottle, and the mortality rate was examined two days later. Aberrant adults were regarded as the dead.

Row | SMILES | mortality at 50 ppm [1] [%] | mortality at 500 ppm [2] [%] | inhibition at 50 ppm [3] [%] | inhibition at 50 ppm [4] [%] | mortality at 500 ppm [5] [%] | parasiticidal activity (mortality rate) [6]
1 | CCS(=O)(=O)c1cc(-c2noc(C3(C)CC3)n2)cnc1-c1nc2cc(C(F)(F)F)cnc2n1C [Compound 1-2] | ≥ 50 | 100 | ≥ 50 | ≥ 50 | 100 | –
2 | CCS(=O)(=O)c1cc(-c2noc(C3(C(F)(F)F)CC3)n2)cnc1-c1nc2cc(C(F)(F)F)cnc2n1C [Compound 1-4, 3-(5-ethylsulfonyl-6-(3-methyl-6-trifluoromethyl-3H-imidazo [4,5-b]pyridin-2-yl)pyridin-3-yl)-5-(1-trifluoromethylcyclopropyl)-1,2,4-oxadiazole] | ≥ 50 | 100 | ≥ 50 | ≥ 50 | 100 | parasiticidal activity
3 | CCS(=O)(=O)c1cc(-c2noc(C3(c4ccccc4)CC3)n2)cnc1-c1nc2cc(C(F)(F)F)cnc2n1C [Compound 1-5] | – | 100 | ≥ 50 | ≥ 50 | 100 | parasiticidal activity
4 | CCS(=O)(=O)c1cc(-c2noc(C3CC3C)n2)cnc1-c1nc2cc(C(F)(F)F)cnc2n1C (stereo not drawn) [Compound 1-6, 3-(5-ethylsulfonyl-6-(3-methyl-6-trifluoromethyl-3H-imidazo[4,5-b]pyridin-2-yl)pyridin-3-yl)-5-(2-methylcyclopropyl)-1,2,4-oxadiazole] | – | 100 | ≥ 50 | ≥ 50 | 100 | –
5 | CCS(=O)(=O)c1cc(-c2noc(C3(C(F)(F)F)CC3)n2)cnc1-c1nc2cc(C(F)(F)F)ncc2n1C [Compound 1-7] | ≥ 50 | 100 | ≥ 50 | ≥ 50 | 100 | –
6 | CCS(=O)(=O)c1cc(-c2noc(C3(C(F)(F)F)CC3)n2)cnc1-c1nc2cc([S+]([O-])C(F)(F)F)ccc2n1C (stereo not drawn) [Compound 1-8] | – | 100 | – | – | 100 | –

— US12484581B2, “Agricultural or horticultural insecticide or animal ectoparasite or endoparasite control agent each comprising a condensed heterocyclic compound having a substituted cyclopropane-oxadiazole group or a salt thereof as active ingredient, and method for using the insecticide or the control agent” (NIHON NOHYAKU CO., LTD., priority 2019, dated 2025)
